Results on 3 compounds are retold here after patent US6150351A, “Cephem compounds and pharmaceutical use thereof” (Fujisawa Pharmaceutical Co., Ltd., priority 1996, dated 2000).

A short description of data set [1]: in vivo. Details: species or system male rats. The settings on record: rat, po. On the procedure:
The test compound suspended in 0.5% methylcellulose was orally administered to male rats at a dose of 100 or 32 mg/kg/day for 2 weeks.

Data set [2] concerns H. pylori FP 1757. Description: In vitro anti-microbial activity against Helicobacter pylori (two-fold agar plate dilution method). It counts as cell-based. The conditions noted are these: FP1757, 72 h, test strain H. pylori FP 1757, Brucella agar with 7% horse blood, 37° C., 3 days, 10% CO2.
Data set [3] relates to H. pylori FP 1757. Description: Therapeutic effects in mouse model (H. pylori infection, eradication). It counts as in vivo, male ICR mice. The conditions noted are these: 0.32 mg/kg/time, oral, twice per day for 4 days; mice sacrificed 2 weeks after final administration. On the procedure: 1.5 ml of approx. 10^8 cfu/ml of H. pylori FP 1757 was orally infected into 4 weeks old male ICR mice (Nippon SLC, Hamamatsu, Japan) which had been fasted overnight. […] The test compound was suspended in 0.5% methylcellulose and administered to the mice. The mice were sacrificed at 2 weeks after the final administration and the gastric mucosa was scraped and homogenized in 1 ml of 0.1 M phosphate buffered saline. 0.1 ml aliquots were inoculated onto Brucella agar plate containing 3% horse serum, 2% starch and antibiotics. All plates were incubated at 37° C. under 10% CO2 for 4 or 5 days. Colonies grown on the plate were counted, and the therapeutic effect was evaluated.

As for `NC(=O)Cc1csc(SC2=C(C(=O)O)N3C(=O)[C@@H](NC(=O)Cc4ccccc4)[C@H]3SC2)n1` [Example 14, 7β-(2-Phenylacetamido)-3-(4-carbamoylmethylthiazol-2-yl)thio-3-cephem-4-carboxylic acid], the NOAEL at 336 h in data set [1] was found to be 100 mg/kg/day.
With `NCc1nnc(SC2=C(C(=O)O)N3C(=O)[C@@H](NC(=O)Cc4ccccc4)[C@H]3SC2)s1.O=C(O)C(F)(F)F` [Example 24, 7β-(2-phenylacetamido)-3-(5-aminomethyl-1,3,4-thiadiazol-2-yl)thio-3-cephem-4-carboxylic acid trifluoroacetic acid salt], the MIC in data set [2] is < 0.02 µg/mL.
For the compound `O=C(O)Cc1csc(SC2=C(C(=O)O)N3C(=O)[C@@H](NC(=O)Cc4cccs4)[C@H]3SC2)n1` [Example 72, 7β-[2-(2-Thienyl)acetamido]-3-(4-carboxymethylthiazol-2-yl)thio-3-cephem-4-carboxylic acid], in data set [3], the eradication is > 80%.

One may read the NOAEL as the highest dose or exposure tested at which no adverse effect was seen. The term MIC denotes the lowest concentration found to suppress growth.
